Measured values published in patent publication US12070452B2, “Compounds targeting HSP110 protein for cancer treatment” (INSERM (Institut National de la Santé et de la Recherche …, priority 2018, dated 2024).
Entries after “also recorded” stand apart in the source; their conditions may differ.

Legend:
CT26 cells = test: Flow cytometric analysis of cell death (Annexin V / 7-AAD) in CT26 cells; type: cell-based, mouse; conditions: 10 μM, 96 h
Method: FIG. 5A: Flow cytometric analysis of cell death in CT26 cells treated with the compound 33 (at the bottom left), compound 52 (at the bottom middle), comparative compound 61 (at the bottom right) at 10 μM during 96 h compared with Control (DMSO) (at the top left), and Cisplatin (at the top middle and top right). Live cells were double negative for 7-AAD (Y axis) and Annexin V (X axis), early apoptotic cells were positive for Annexin V, late apoptotic cells were positive for Annexin V and 7-AAD ([…]) and dead cells were positive for 7-AAD only.
FIG. 5B: Quantification of cell viability (in percentage) from flow cytometry data are represented (Control, cells, compounds 33, 52 and 61 from the left to the right bars). (Abscissa Negativity of 7-AAD; Ordinate Negativity of Annexin V).
We then analyzed cell death in CT26 cells treated with 10 μM during 96 h of compounds 33, 52 and 61 by flow cytometry. Cells were also treated with a well know anti-cancer compound, called cisplatin. Cells were marked for 7-aminoactinomycin D, which exclusively bind on death cells and for Annexin V, a well-known indicators of early stage apoptosis, thanks to its ability to bind to phosphatidylserine.

NFκB signaling pathway = test: Western blot of NFκB signaling and Myd88 in DLBCL cell lines; type: cell-based, human; conditions: for IkB phosphorylation (P-IKB): two DLBCL cell lines, 24 h of treatment
Method: FIG. 10B: Expression of HSP110 (first line), P-P65 (S276) (second line), P65 (third line), Myd88 (fourth line) and Actin (fifth line) in TMD8 human B cell lymphoma cell line (left part of FIG. 10B) or in HBL1 human diffuse large B-cell lymphoma cell line (right part of FIG. 10B), both cell lines being treated with Control (DMSO) and compound 33.
FIG. 10C: Expression, after 24 h of treatment, of HSP110 (first line), P-IKB (second line), IKB (third line) and Actin (fourth line) in TMD8 human B cell lymphoma cell line (right part of FIG. 10C) or in OCI-Ly3 human diffuse large B-cell lymphoma cell line (left part of FIG. 10C), both cell lines being treated with Control (DMSO), control compound 61, compound 52 and compound 33.

HSP110:STAT3 complex = molecular target: T1, HSP110:STAT3 complex (Homo sapiens, UniProt Q92598); test: Immunoprecipitation of HSP110:STAT3 complex in SW480 cells; type: cell-based; conditions: SW480 shCtrl cells, 10 μM, 48 h
T1 construct: disrupting HSP110:STAT3 complex within the cell using human colorectal SW480 cancer cells; endogenous in cells; host or cells: SW480 cells carrying control shRNA (shCtrl); sh110 cells as HSP110-depleted control
Method: FIG. 2A: Immunoprecipitation (IP) analysis of HSP110 protein (first line), STAT3 protein (second line) compared with total Immunoglobuline (Ig) and actin in SW480 cells treated with (from left to the right column) non-relevant antibody as control (called NT a Normal rabbit IgG (sc-2027) from Santa Cruz Biotechnologies), compound 52 (related to formula (III)), compound 33 (related to formula (II)), compound 51 (related to formula (IV)) and comparative compound 61 at a concentration of 10 μM during 48 h on shCtrl cells transfected with shRNA for shRNA control (referenced ShCtrl IP:STAT3 for the five first columns) or HSP110-silencing (sh110) (referenced sh110-IP:STAT3 for the two last columns) (from the left to the right columns). Immunoprecipitation analysis of HSP110 (first line), STAT3 (second line) compared with total Ig and actin (second blot in the right) is observed with shCtrl cells transfected with shRNA for shRNA control (shCtrl) or HSP110-silencing (sh110) (left to right columns).
FIG. 2B: Quantification of HSP110:STAT3 disruption in percentage considering the total amount of HSP110 protein normalized by the signal intensity of the Ig band of FIG. 1 panel A. (Ordinate: Percentage of STAT3:HSP110 protein interaction (scale 50)). The histogram measured quantification in percentage for ShCtrl IP: STAT3 treated with Ctrl, compounds 52, 33, 51 and comparative compound 61, and for shCtrl cells transfected with shRNA for shRNA control referenced ShCtrl IP: STAT3) or HSP110-silencing (sh110) (referenced sh110-IP: STAT3) (from the left to the right column)
Immunoprecipitation test were realized on human colorectal cancer cells (SW480 and HCT116 cell lines), using a control depleted in HSP110 called Sh110 and a not depleted cells in HSP110. STAT3 phosphorylation is then […] by compounds 33 and 52. Depletion of HSP110 in the negative control blocked the phosphorylation of STAT3 without affecting STAT3 overall levels (FIGS. 2 and 3).

Bcl2 and Bcl-xL = test: Western blot of anti-apoptotic proteins Bcl2 and Bcl-xL in DLBCL cell lines; type: cell-based, human; conditions: TMD8 and HBL1, 76 h in vitro treatment
Method: FIG. 10D: Expression analysis of BcL2 (first line), BcL-XL (second line), and Actin (third line) in TMD8 human B cell lymphoma cell line or in HBL1 human diffuse large B-cell lymphoma cell line, both cell lines being treated with Control (DMSO), compound 33 and compound 52.
It has also been shown that compounds 33 and 52 reduce the expression of the anti-apoptotic proteins Bcl2 and Bcl-xL in these two human diffuse large B-cell lymphoma cell lines, as determined by Western blotting after a 76 h in vitro treatment with compound 33 or 52.

T1 sequence (Q92598 2-858 limits assumed, one chain of several): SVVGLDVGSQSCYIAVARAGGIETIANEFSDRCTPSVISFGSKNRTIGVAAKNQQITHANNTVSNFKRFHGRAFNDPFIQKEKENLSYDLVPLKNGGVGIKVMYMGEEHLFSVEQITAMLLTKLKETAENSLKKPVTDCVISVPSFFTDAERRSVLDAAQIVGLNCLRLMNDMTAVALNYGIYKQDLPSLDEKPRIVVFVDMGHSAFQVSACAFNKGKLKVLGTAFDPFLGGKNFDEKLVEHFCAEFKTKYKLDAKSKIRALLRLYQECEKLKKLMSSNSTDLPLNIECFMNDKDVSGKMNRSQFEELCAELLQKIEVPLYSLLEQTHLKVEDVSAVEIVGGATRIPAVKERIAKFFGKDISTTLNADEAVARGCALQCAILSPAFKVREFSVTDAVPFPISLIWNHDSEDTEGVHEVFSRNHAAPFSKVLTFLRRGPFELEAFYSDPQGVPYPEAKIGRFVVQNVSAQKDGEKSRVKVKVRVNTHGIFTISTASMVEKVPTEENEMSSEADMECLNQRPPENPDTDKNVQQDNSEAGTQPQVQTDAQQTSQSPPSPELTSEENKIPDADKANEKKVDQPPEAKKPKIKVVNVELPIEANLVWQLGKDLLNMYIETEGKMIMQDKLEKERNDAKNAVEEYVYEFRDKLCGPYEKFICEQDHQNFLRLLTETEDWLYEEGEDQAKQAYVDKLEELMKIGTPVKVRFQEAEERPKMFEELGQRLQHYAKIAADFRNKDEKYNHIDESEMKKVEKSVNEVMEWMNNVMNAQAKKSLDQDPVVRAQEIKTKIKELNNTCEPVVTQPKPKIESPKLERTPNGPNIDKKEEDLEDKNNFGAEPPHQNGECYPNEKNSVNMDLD

Compound | cell death / apoptosis (Annexin V and 7-AAD marking) (CT26 cells) | NFκB signaling pathway (P-p65) (NFκB signaling pathway; TMD8 and HBL1 DLBCL cell lines) | IkB phosphorylation (P-IKB) (NFκB signaling pathway) | percentage of interaction of STAT3:HSP110 (HSP110:STAT3 complex) | expression of anti-apoptotic protein Bcl2 (Bcl2 and Bcl-xL) | expression of anti-apoptotic protein Bcl-xL (Bcl2 and Bcl-xL) | Myd88 expression (NFκB signaling pathway; TMD8 and HBL1 DLBCL cell lines)
COc1cc(-c2cnc(-c3cnc(-c4cc(OC)c(OC)c(OC)c4)c(C)c3)c(/C=C/c3ccccc3)c2)cc(OC)c1OC [compound 52, (E)-5′-Methyl-3-styryl-5,6′-bis(3,4,5-trimethoxyphenyl)-2,3′-bipyridine] | don't seem to be marked; also recorded: does not allow detecting significally apoptosis | strong decrease | decrease | 5% | reduce | reduce | 
COc1ccc(-c2ncc(-c3ncc(-c4cc(OC)c(OC)c(OC)c4)cc3/C=C/c3ccccc3)cc2C)cc1OC [compound 33, (E)-6′-(3,4-Dimethoxyphenyl)-5′-methyl-3-styryl-5-(3,4,5-trimethoxyphenyl)-2,3′-bipyridine] | don't seem to be marked; also recorded: does not allow detecting significally apoptosis | reduces; also recorded: strong decrease | decrease | 20% | reduce | reduce | reduces
